In patent publication US20250051344A1, “BIFUNCTIONAL SELECTIVE DEGRADERS OF SMARCA2 AND THERAPEUTIC USES THEREOF” (Nurix Therapeutics, Inc., priority 2023, published 2025):

Columns and labels:
SMARCA2 = target: T1, SMARCA2 (Homo sapiens, UniProt P51531); experiment: SMARCA2 Cellular Degradation Assay (Western blot analysis on Jess platform); assay type: cell-based; details: for DC50 / Dmax: cellular degradation; for Fold Selectivity SMARCA4/2: ratio DC50 SMARCA4 / DC50 SMARCA2
T1 construct: endogenous in cells
T1 sequence (P51531 whole entry, species assumed): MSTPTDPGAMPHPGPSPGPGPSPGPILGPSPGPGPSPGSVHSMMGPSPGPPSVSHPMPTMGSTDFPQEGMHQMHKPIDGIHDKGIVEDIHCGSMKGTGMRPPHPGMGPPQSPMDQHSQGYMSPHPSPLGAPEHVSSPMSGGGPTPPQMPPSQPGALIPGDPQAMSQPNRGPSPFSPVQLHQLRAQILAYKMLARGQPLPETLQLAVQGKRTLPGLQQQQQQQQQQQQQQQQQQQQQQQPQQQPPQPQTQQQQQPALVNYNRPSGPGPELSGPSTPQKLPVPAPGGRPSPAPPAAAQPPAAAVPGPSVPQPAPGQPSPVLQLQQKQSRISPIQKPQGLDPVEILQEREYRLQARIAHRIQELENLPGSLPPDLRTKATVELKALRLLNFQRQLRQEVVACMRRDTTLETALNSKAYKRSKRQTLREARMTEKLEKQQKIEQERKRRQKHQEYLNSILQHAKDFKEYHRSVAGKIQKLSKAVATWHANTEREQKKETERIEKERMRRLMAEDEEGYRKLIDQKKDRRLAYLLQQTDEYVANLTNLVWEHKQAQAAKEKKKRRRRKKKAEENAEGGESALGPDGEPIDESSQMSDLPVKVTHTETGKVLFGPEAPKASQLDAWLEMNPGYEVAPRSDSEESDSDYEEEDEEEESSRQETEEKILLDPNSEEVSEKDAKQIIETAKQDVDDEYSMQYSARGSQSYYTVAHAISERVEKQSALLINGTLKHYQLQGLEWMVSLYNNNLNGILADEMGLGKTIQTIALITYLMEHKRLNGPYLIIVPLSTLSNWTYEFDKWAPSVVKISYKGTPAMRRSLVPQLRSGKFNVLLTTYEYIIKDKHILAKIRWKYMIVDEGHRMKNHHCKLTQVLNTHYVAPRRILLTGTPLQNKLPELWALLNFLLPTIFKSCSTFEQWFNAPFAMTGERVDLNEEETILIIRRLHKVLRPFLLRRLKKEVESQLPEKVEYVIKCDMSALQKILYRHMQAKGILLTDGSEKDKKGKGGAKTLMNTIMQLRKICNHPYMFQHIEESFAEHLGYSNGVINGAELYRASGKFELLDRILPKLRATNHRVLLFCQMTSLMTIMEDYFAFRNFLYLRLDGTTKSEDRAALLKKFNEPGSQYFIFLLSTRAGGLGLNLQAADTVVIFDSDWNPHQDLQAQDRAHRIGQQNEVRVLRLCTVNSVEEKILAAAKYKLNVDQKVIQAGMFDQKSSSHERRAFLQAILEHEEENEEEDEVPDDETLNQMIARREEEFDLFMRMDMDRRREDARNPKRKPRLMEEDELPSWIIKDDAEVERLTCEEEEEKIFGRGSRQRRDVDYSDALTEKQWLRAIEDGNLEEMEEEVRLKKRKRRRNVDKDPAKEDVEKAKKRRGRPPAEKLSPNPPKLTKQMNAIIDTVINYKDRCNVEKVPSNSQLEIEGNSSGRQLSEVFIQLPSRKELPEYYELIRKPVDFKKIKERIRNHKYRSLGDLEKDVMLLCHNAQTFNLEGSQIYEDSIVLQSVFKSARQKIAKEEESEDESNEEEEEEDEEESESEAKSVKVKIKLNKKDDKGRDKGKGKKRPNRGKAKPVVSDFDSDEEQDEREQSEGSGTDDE
In short: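 Readout: Jess Simple Western of tumor-extracted cell lysates, SMARCA2 area over actin area after background subtraction, shown as percentage of vehicle control.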

SMARCA4 = target: T2, SMARCA4 (Homo sapiens, UniProt P51532); experiment: Cellular degradation assay, SMARCA4 (Table 1); assay type: cell-based
T2 construct: endogenous in cells
T2 sequence (P51532 whole entry, species assumed): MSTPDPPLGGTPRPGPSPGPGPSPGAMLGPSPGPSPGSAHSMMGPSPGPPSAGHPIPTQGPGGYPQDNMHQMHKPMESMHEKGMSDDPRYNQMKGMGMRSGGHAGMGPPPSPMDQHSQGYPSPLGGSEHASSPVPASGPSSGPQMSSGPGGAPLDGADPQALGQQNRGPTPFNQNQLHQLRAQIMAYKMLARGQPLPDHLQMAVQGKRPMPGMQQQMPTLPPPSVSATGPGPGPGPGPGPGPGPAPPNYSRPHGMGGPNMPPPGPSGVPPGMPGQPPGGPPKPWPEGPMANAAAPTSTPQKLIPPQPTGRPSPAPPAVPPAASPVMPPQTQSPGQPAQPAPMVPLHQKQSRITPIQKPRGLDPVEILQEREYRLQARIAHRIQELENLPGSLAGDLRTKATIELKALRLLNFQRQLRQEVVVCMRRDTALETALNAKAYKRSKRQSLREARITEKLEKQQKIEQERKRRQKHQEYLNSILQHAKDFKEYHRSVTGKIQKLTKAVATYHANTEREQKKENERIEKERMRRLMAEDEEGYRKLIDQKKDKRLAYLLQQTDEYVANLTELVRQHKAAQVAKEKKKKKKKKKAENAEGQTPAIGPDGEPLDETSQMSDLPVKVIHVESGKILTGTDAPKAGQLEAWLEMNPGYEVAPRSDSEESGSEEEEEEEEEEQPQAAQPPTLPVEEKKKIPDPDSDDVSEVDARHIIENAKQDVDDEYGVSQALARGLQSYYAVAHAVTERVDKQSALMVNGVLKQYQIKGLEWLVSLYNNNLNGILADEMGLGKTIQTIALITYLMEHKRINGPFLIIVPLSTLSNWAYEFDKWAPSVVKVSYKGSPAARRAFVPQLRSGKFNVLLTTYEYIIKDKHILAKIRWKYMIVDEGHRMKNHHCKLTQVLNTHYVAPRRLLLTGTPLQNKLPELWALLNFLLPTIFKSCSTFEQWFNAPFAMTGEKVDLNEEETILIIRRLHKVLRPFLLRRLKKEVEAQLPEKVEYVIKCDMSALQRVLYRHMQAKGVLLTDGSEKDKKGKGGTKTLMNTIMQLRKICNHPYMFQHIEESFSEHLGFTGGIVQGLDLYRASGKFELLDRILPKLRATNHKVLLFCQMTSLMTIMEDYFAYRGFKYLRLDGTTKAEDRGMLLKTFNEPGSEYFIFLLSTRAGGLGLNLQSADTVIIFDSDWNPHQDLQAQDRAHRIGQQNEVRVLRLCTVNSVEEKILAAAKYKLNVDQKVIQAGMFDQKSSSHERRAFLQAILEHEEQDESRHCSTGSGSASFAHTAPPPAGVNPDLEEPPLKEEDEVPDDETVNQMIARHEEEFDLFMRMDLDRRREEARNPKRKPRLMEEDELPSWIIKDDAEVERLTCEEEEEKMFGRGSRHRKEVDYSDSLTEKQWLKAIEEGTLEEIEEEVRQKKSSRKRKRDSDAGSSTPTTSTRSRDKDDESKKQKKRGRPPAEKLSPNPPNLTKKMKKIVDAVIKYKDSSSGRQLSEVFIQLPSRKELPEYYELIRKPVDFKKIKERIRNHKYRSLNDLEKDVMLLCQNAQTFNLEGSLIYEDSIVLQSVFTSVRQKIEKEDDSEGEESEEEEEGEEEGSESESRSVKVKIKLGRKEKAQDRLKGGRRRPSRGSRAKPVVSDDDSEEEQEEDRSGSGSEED

Structure (SMILES) | DC50 (SMARCA2) [nM] | Dmax (SMARCA2) [%] | Fold Selectivity SMARCA4/2 (SMARCA2) | Dmax (SMARCA4) [%] | DC50 (SMARCA4) [nM]
O=C1CCC(c2ccc(N3CCC(CCN4CC5(C4)CN(C(=O)C4(c6ccccc6F)CCN(c6cnnc(-c7ccccc7O)c6)CC4)C5)CC3)cc2)C(=O)N1 (racemic) [Example 132, rac-(3R)-3-{4-[4-(2-{6-[4-(2-fluorophenyl)-1-[6-(2-hydroxyphenyl)pyridazin-4-yl]piperidine-4-carbonyl]-2,6-diazaspiro[3.3]heptan-2-yl}ethyl)piperidin-1-yl]phenyl}piperidine-2,6-dione] | 10.2 | 71.6 | 984 | 15 | –
CN(C(=O)C1(Oc2ccccc2)CCN(c2cnnc(-c3ccccc3O)c2)CC1)C1CCN(CC2CCN(c3ccc([C@H]4CCC(=O)NC4=O)cc3)CC2)C2(CC2)C1 (mixture of isomers) [Example 168, N-[(7RS)-4-[(1-{4-[(3R)-2,6-dioxopiperidin-3-yl]phenyl}piperidin-4-yl)methyl]-4-azaspiro[2.5]octan-7-yl]-1-[6-(2-hydroxyphenyl)pyridazin-4-yl]-N-methyl-4-phenoxypiperidine-4-carboxamide] | 18.4 | 90.6 | 6 | 77.3 | 113
Cc1ccccc1C1(C(=O)N2CC3(CN(CC4CCN(c5ccc(C6CCC(=O)NC6=O)cc5)CC4)C3)C2)CCN(c2cnnc(-c3ccccc3O)c2)CC1 (racemic) [Example 33, rac-(3R)-3-(4-{4-[(6-{1-[6-(2-hydroxyphenyl)pyridazin-4-yl]-4-(2-methylphenyl)piperidine-4-carbonyl}-2,6-diazaspiro[3.3]heptan-2-yl)methyl]piperidin-1-yl}phenyl)piperidine-2,6-dione] | 11.7 | 78.9 | 6.16 | 56 | 71.9
Cc1ccn(C2(C(=O)NC3CCN(CC4CCN(c5ccc([C@H]6CCC(=O)NC6=O)cc5)CC4)C4(CCC4)C3)CCN(c3cnnc(-c4ccccc4O)c3)CC2)n1 (stereo partly drawn) [Example 162, N-{5-[(1-{4-[(3R)-2,6-dioxopiperidin-3-yl]phenyl}piperidin-4-yl)methyl]-5-azaspiro[3.5]nonan-8-yl}-1-[6-(2-hydroxyphenyl)pyridazin-4-yl]-4-(3-methyl-1H-pyrazol-1-yl)piperidine-4-carboxamide] | 2.62 | 84.7 | 10 | 63.9 | 25.9
COc1cccc(C2(C(=O)NC3CCN(CC4CCN(c5ccc([C@H]6CCC(=O)NC6=O)cc5)CC4)C4(CCC4)C3)CCN(c3cnnc(-c4ccccc4O)c3)CC2)c1 (stereo partly drawn) [Example 169, N-{5-[(1-{4-[(3R)-2,6-dioxopiperidin-3-yl]phenyl}piperidin-4-yl)methyl]-5-azaspiro[3.5]nonan-8-yl}-1-[6-(2-hydroxyphenyl)pyridazin-4-yl]-4-(3-methoxyphenyl)piperidine-4-carboxamide] | 6.28 | 86.6 | 17 | 62 | 104
O=C1CC[C@@H](c2cccc(N3CCC(CN4CCC5(CC4)CN(C(=O)C4(c6ccccc6)CCN(c6cnnc(-c7ccccc7O)c6)CC4)C5)CC3)c2)C(=O)N1 (racemic) [Example 101, rac-®-3-(3-(4-((2-(1-(6-(2-hydroxyphenyl)pyridazin-4-yl)-4-phenylpiperidine-4-carbonyl)-2,7-diazaspiro[3.5]nonan-7-yl)methyl)piperidin-1-yl)phenyl)piperidine-2,6-dione] | 19.5 | 71 | 6 | 60.2 | 114
CN(C(=O)C1(c2ccccc2)CCN(c2cnnc(-c3ccccc3O)c2)CC1)C1CCN(CC2CCN(c3ccc([C@H]4CCC(=O)NC4=O)cc3)CC2)C2(CCCCC2)C1 (mixture of isomers) [Example 153, N-[(4RS)-1-[(1-{4-[(3R)-2,6-dioxopiperidin-3-yl]phenyl}piperidin-4-yl)methyl]-1-azaspiro[5.5]undecan-4-yl]-1-[6-(2-hydroxyphenyl)pyridazin-4-yl]-N-methyl-4-phenylpiperidine-4-carboxamide] | 10.3 | 92.2 | 5 | 86.2 | 47.5
O=C1CC[C@H](c2ccc(N3CCC4(CC3)CC(N[C@H]3CC[C@H](NC(=O)C5(c6ccccc6)CCN(c6cnnc(-c7ccccc7O)c6)CC5)CC3)CO4)cc2)C(=O)N1 (mixture of isomers) [Example 178, 1-[6-(2-hydroxyphenyl)pyridazin-4-yl]-4-phenyl-N-[(1r,4r)-4-[(8-{4-[(3RS)-2,6-dioxopiperidin-3-yl]phenyl}-1-oxa-8-azaspiro[4.5]decan-3-yl)amino]cyclohexyl]piperidine-4-carboxamide] | 10.1 | 76.2 | 7 | 62.2 | 70.3
O=C1CCC(c2ccc(N3CCN(C(=O)CC4CCN(C(=O)C5(c6ccccc6)CCN(c6cnnc(-c7ccccc7O)c6)CC5)CC4)CC3)cc2)C(=O)N1 (racemic) [Example 18, rac-(3R)-3-(4-{4-[2-(1-{1-[6-(2-hydroxyphenyl)pyridazin-4-yl]-4-phenylpiperidine-4-carbonyl}piperidin-4-yl)acetyl]piperazin-1-yl}phenyl)piperidine-2,6-dione] | – | 44.1 | 1 | 27.7 | –
O=C1CCC(Nc2ccc(C3CCN(CCNC(=O)C4(c5ccccc5)CCN(c5cnnc(-c6ccccc6O)c5)CC4)CC3)cc2)C(=O)N1 (racemic) [Example 170, rac-N-{2-[4-(4-{[(3R)-2,6-dioxopiperidin-3-yl]amino}phenyl)piperidin-1-yl]ethyl}-1-[6-(2-hydroxyphenyl)pyridazin-4-yl]-4-phenylpiperidine-4-carboxamide] | 38.3 | 59.2 | 261 | 48.5 | –
O=C1CC[C@H](c2ccc(N3CCC(CCN4CCC(S(=O)(=O)NCC5(c6ccccc6)CCN(c6cnnc(-c7ccccc7O)c6)CC5)CC4)CC3)cc2)C(=O)N1 (racemic) [Example 118, rac-1-(2-(1-(4-(2,6-dioxopiperidin-3-yl)phenyl)piperidin-4-yl)ethyl)-n-((1-(6-(2-hydroxyphenyl)pyridazin-4-yl)-4-phenylpiperidin-4-yl)methyl)piperidine-4-sulfonamide] | 8.85 | 84 | 4 | 76.5 | 35.5
CC(C)c1cc(C2(C(=O)N(C)C3CCN(C4COC5(CCN(c6ccc([C@H]7CCC(=O)NC7=O)cc6)CC5)C4)CC3)CCN(c3cnnc(-c4ccccc4O)c3)CC2)no1 (mixture of isomers) [Example 59, N-{1-[(3RS)-8-{4-[(3R)-2,6-dioxopiperidin-3-yl]phenyl}-1-oxa-8-azaspiro[4.5]decan-3-yl]piperidin-4-yl}-1-[6-(2-hydroxyphenyl)pyridazin-4-yl]-N-methyl-4-[5-(propan-2-yl)-1,2-oxazol-3-yl]piperidine-4-carboxamide] | 11.9 | 72.8 | 842 | 26 | –
CN(C(=O)C1(c2ccccc2)CCN(c2cnnc(-c3ccccc3O)c2)CC1)C1CCN([C@H]2COC3(CCN(c4ccc([C@H]5CCC(=O)NC5=O)cc4)CC3)C2)CC1 (single isomer, unassigned) [Example 149] | 7.34 | 84.9 | 1362 | 41 | –
